Like-named read-outs stand apart in the source and are kept apart here.
Key:
[1] = test system: spontaneous hypertensive rats (SHR); test: Hypotensive Action: systolic pressure from tail artery of SHR after oral administration 10 mg/Kg once a day for 2 days; assay type: in vivo, rat; conditions: oral 10 mg/Kg, * = significant vs control, P = 0.01
[2] = test system: spontaneous hypertensive rats (SHR); test: as above; assay type: in vivo, rat; conditions: oral 10 mg/Kg, * = significant vs control, P = 0.01; remark: listed apart in the source
Procedure: A test compound suspended in a gum arabic solution was orally administered once a day, at a dose of 10 mg/Kg (body weight), for 2 days, to groups of spontaneous hypertensive rats (hereinafter referred to as "SHR") (about 30 weeks old; systolic pressure=about 230 mm Hg), each group consisting of 6 rats.
The systolic pressure was measured from the tail artery of SHR under no anesthesia before the administration and 6 hours after the time of administration by using a continuous tonometer (Shimazu Tonometer Model SCS-301 manufactured by Shimazu Seisakusho K.K.). An aqueous solution of gum arabic alone was administered to the rats of the control group.

rats of the SD series = test: Acute Toxicity: LD50 in rats of the SD series, 14 days observation; assay type: in vivo; conditions: female
From the text: (§1) Groups of rats of the SD series (body weight=160-280 g; about 8 weeks old), each group consisting of 5 rats, were used. After administration of the test compound, the death or survival was examined during a period of 14 days to determine the LD50 value.

[3] = as above; assay type: in vivo; conditions: rat, in vivo, male
From the text: as §1

[4] = ip, abdominal administration, read-out: LD50, Abdominal Administration, male
[5] = oral, read-out: LD50, Oral Administration, male

Row | Structure (SMILES) | Blood Pressure (mm Hg) on Second Day, after 24 hours [1] | Blood Pressure (mm Hg) on First Day, after 6 hours [2] | Blood Pressure (mm Hg) on Second Day, after 6 hours [2] | Blood Pressure (mm Hg) on Second Day, before administration [2] | LD50, Abdominal Administration, female (rats of the SD series) | LD50, Oral Administration, female (rats of the SD series) | LD50 at 336 h [3, 4] | LD50 at 336 h [3, 5]
1 | COc1ccccc1C1CC(=O)C(C(=O)CCc2ccc3c(c2)OCO3)C(=O)C1 (stereo not drawn) | 220 ± 6 mm Hg | 210 ± 5 mm Hg | 205 ± 5 mm Hg | 220 ± 6 mm Hg |  |  |  | 
2 | CC1(C)Oc2ccc(CCC(=O)C3C(=O)CC(c4ccccc4)CC3=O)cc2O1 (stereo not drawn) | 192 ± 7 mm Hg | 207 ± 3 mm Hg | 190 ± 5 mm Hg | 202 ± 7 mm Hg |  |  |  | 
3 | O=C(CCc1ccc2c(c1)OC(c1ccccc1)(c1ccccc1)O2)C1C(=O)CC(c2ccccc2)CC1=O (stereo not drawn) | 208 ± 5 mm Hg | 202 ± 5 mm Hg | 192 ± 5 mm Hg | 210 ± 10 mm Hg |  |  |  | 
4 | COc1ccc(CCC(=O)C2C(=O)CC(c3ccccc3)CC2=O)cc1 (stereo not drawn) | 212 ± 6 mm Hg | 209 ± 5 mm Hg | 210 ± 5 mm Hg | 213 ± 6 mm Hg |  |  |  | 
5 | O=C(CCc1ccccc1Cl)C1C(=O)CC(c2ccccc2)CC1=O (stereo not drawn) | 193 ± 1 mm Hg | 200 ± 3 mm Hg | 213 ± 4 mm Hg | 208 ± 9 mm Hg |  |  |  | 
6 | O=C(CCc1ccc(O)c(O)c1)C1C(=O)CC(c2ccccc2)CC1=O (stereo not drawn) | 205 ± 5 mm Hg | 204 ± 5 mm Hg | 200 ± 5 mm Hg | 209 ± 5 mm Hg |  |  |  | 
7 | CC(=O)Oc1ccc(CCC(=O)C2C(=O)CC(c3ccccc3)CC2=O)cc1OC(C)=O (stereo not drawn) | 212 ± 5 mm Hg | 195 ± 10 mm Hg | 195 ± 10 mm Hg | 222± 5 mm Hg |  |  |  | 
8 | COc1ccc(C2CC(=O)C(C(=O)CCc3ccc(O)c(O)c3)C(=O)C2)cc1 (stereo not drawn) | 228 ± 2 mm Hg | 212 ± 3 mm Hg | 220 ± 1 mm Hg | 225 ± 1 mm Hg |  |  |  | 
9 | O=C(Cc1ccc(Cl)cc1)C1C(=O)CC(c2ccccc2)CC1=O (stereo not drawn) | 222 ± 4 mm Hg | 215 ± 1 mm Hg | 215 ± 2 mm Hg | 217 ± 4 mm Hg |  |  |  | 
10 | O=C(CCc1ccc2c(c1)OCO2)C1C(=O)CC(c2ccccc2)CC1=O (stereo not drawn) [drawing 20] | 207 ± 7 mm Hg | 205 ± 7 mm Hg | 204 ± 6 mm Hg | 218 ± 7 mm Hg |  |  |  | 
11 | Cc1ccc(C2CC(=O)C(C(=O)CCc3ccc4c(c3)OCO4)C(=O)C2)cc1 (stereo not drawn) [drawing 21] | 192 ± 5 mm Hg | 198 ± 5 mm Hg | 188 ± 5 mm Hg | 200 ± 10 mm Hg |  |  |  | 
12 | O=C(Cc1ccccc1)C1C(=O)CC(c2ccccc2)CC1=O (stereo not drawn) [drawing 31] | 193 ± 7 mm Hg | 183 ± 3 mm Hg | 183 ± 3 mm Hg | 203 ± 3 mm Hg |  |  |  | 
13 | O=C(CCc1ccc2c(c1)OCO2)C1C(=O)CC(c2ccccc2)CC1=O (stereo not drawn) [drawing 33] |  |  |  |  | > 500 | > 4000 | > 500 mg/kg | > 4000 mg/kg
14 | Cc1ccc(C2CC(=O)C(C(=O)CCc3ccc4c(c3)OCO4)C(=O)C2)cc1 (stereo not drawn) [drawing 34] |  |  |  |  | > 500 | > 4000 | > 500 mg/kg | > 4000 mg/kg
15 | O=C(Cc1ccccc1)C1C(=O)CC(c2ccccc2)CC1=O (stereo not drawn) [drawing 35] |  |  |  |  | > 500 | > 4000 | > 500 mg/kg | > 4000 mg/kg
